Results reported in patent publication US20250332173A1, “COMPOUNDS AND METHODS FOR MODULATING NUCLEIC ACID SPLICING” (REMIX THERAPEUTICS INC., priority 2021, published 2025).

Experiments:
Format in all cases: cell-based, human
Target C [1] = experiment: HiBiT protein abundance assay, Target C (Promega Nano-Glo HiBiT Lytic Detection System, knock-in K562 cell line); conditions: Homo sapiens, K562, 24 h, HiBiT K562 cell line, 24 hours, top dose 10 μM; read-out: Effect on protein abundance, Target C (IC50 category)
Procedure, shortened: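 HiBiT knock-in K562 cells (10,000/well) were treated for 24 h at 37 °C with a 10-point 3-fold dilution series, top final concentration 10 μM, DMSO ≤0.25%. Lytic HiBiT luminescence was read, normalized to unmodified K562 and DMSO-treated controls, and IC50 was interpolated from a four-parameter logistic fit.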

MYB = experiment: HiBiT protein abundance assay, MYB HiBiT K562 cell line; conditions: HiBiT K562 cell line, 24 hours, top dose 10 μM; read-out: Effect on protein abundance, MYB (IC50 category)
Procedure, shortened: (§1)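 Endogenous targets in K562 knock-in lines carried a HiBiT tag and were treated for 24 h at 37 °C with 10-point 3-fold dilutions (top 10 μM final, DMSO ≤0.25%). Abundance was read as lytic Nano-Glo HiBiT luminescence. IC50 came from a four-parameter logistic fit of normalized response.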

Target C [2] = experiment: RT-qPCR splicing assay panel, Target C canonical junction (CJ) mRNA; conditions: Homo sapiens; Table 5 panel; canonical junction qPCR; compound concentration having 50% response in CJ decrease; read-out: Target C IC50 (decrease in CJ mRNA levels)
Procedure, shortened: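 A673 cells (DMEM/10% FBS) or K562 cells (IMDM/10% FBS) were treated 24 h at 37° C. with 11-point 3-fold dilutions (top 10 uM, ≤0.25% DMSO). Canonical-junction mRNA was quantified in lysates by RT-qPCR, normalized to GAPDH, GUSB or PPIA.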

HTT = experiment: HiBiT protein abundance assay, HTT HiBiT K562 cell line; conditions: HiBiT K562 cell line, 24 hours, top dose 10 μM; read-out: Effect on protein abundance, HTT (IC50 category)
Procedure, shortened: as §1

| Compound | IC50 (Target C [1]) | IC50 (MYB) | IC50 (Target C [2]) | IC50 (HTT) |
| --- | --- | --- | --- | --- |
| Cc1cn2nc(-c3ccc4c(=O)n(C5CCNCC5)cnc4c3)nc2c(C)n1 [Compound 287, 7-{6,8-dimethyl-[1,2,4]triazolo[1,5-a]pyrazin-2-yl}-3-(piperidin-4-yl)quinazolin-4-one] | 100 to 1000 nM | 100 to 1000 nM | 100 to 1000 nM | 100 to 1000 nM |
| Cc1cn2nc(-c3ccc4c(=O)n(C5CCN(C)CC5)ccc4c3)cc(C)c2n1 [Compound 310] | 100 to 1000 nM | 100 to 1000 nM | 100 to 1000 nM | 100 to 1000 nM |
| CCN1CCC(n2ncc3cc(-c4cc(C)c5nc(C)cn5n4)ccc3c2=O)CC1 [Compound 266] | 100 to 1000 nM | 100 to 1000 nM | 100 to 1000 nM | < 100 nM |
| Cc1cn2nc(-c3ccc4c(=O)n(C5CCN(C)CC5)cnc4c3)nc2c(C)n1 [Compound 288, 7-{6,8-dimethyl-[1,2,4]triazolo[1,5-a]pyrazin-2-yl}1-3-(1-methylpiperidin-4-yl)quinazolin-4-one] | 1000 to 10000 nM | 1000 to 10000 nM | 1000 to 10000 nM | 1000 to 10000 nM |
| Cc1cn2nc(-c3ccc4c(=O)n([C@@H]5C[C@H]6CC[C@@H](C5)N6)ncc4c3)cc(C)c2n1 [Compound 280] | 100 to 1000 nM | 100 to 1000 nM | 1000 to 10000 nM | 100 to 1000 nM |
| Cc1cn2nc(-c3ccc4c(=O)n([C@H]5CCNC6(CC6)C5)cnc4c3)cc(C)c2n1 [Compound 349, 3-[(7S)-4-azaspiro[2.5]octan-7-yl]-7-{2,8-dimethylimidazo[1,2-b]pyridazin-6-yl}quinazolin-4-one] | 1000 to 10000 nM | 100 to 1000 nM | 1000 to 10000 nM | 100 to 1000 nM |
| CN1CCN(c2ccc3c(=O)n(-c4ccc5nn(C)cc5c4)cnc3c2)CC1 [Compound 152] | > 10000 nM | > 10000 nM | > 10000 nM | > 10000 nM |
| Cc1cn2nc(-c3ccc4c(=O)n([C@@H]5CCNC6(CC6)C5)cnc4c3)cc(C)c2n1 [Compound 350, 3-[(7R)-4-azaspiro[2.5]octan-7-yl]-7-{2,8-dimethylimidazo[1,2-b]pyridazin-6-yl}quinazolin-4-one] | < 100 nM | < 100 nM | 100 to 1000 nM | 100 to 1000 nM |
| Cc1cn2nc(-c3ccc4c(c3)CCN(C3CCNC3)C4=O)cc(C)c2n1 (centres unmarked) [Compound 269] | 1000 to 10000 nM | 1000 to 10000 nM | > 10000 nM | > 10000 nM |
| CN1CC=C(c2ccc3c(=O)n(-c4ccc5nn(C)cc5c4)cnc3c2)CC1 [Compound 159] | > 10000 nM | > 10000 nM |  | > 10000 nM |
| Cc1cn2nc(-c3ccc4c(c3)CCN(C3CCN(C)C3)C4=O)cc(C)c2n1 (centres unmarked) [Compound 282] | > 10000 nM | 1000 to 10000 nM | > 10000 nM | > 10000 nM |
| Cc1cc(-c2ccc3c(=O)n(C4CCN(C)CC4)cnc3c2)cc2cn(C)nc12 [Compound 156] | > 10000 nM | 1000 to 10000 nM |  | 1000 to 10000 nM |
| Cc1cn2cc(-c3ccc4c(=O)n(C5CCN(C)CC5)cnc4c3)nc2c(C)n1 [Compound 302] | 1000 to 10000 nM | 1000 to 10000 nM | 1000 to 10000 nM | 1000 to 10000 nM |
| Cn1cc2cc(-n3cnc4cc(C5=CCNCC5)ccc4c3=O)ccc2n1 [Compound 158] | 1000 to 10000 nM | 1000 to 10000 nM |  | > 10000 nM |
| Cc1cc(-c2ccc3c(=O)n(C4CC(C)(C)NC(C)(C)C4)cnc3c2)cc2cn(C)nc12 [Compound 157] | 1000 to 10000 nM | 1000 to 10000 nM |  | 1000 to 10000 nM |
| Cn1cc2cc(-n3cnc4cc(N5CCNCC5)ccc4c3=O)ccc2n1 [Compound 153] | > 10000 nM | > 10000 nM |  | > 10000 nM |

Second part, the compound after the results:

| IC50 (Target C [1]) | IC50 (MYB) | IC50 (Target C [2]) | IC50 (HTT) | Compound |
| --- | --- | --- | --- | --- |
| 1000 to 10000 nM | 1000 to 10000 nM | > 10000 nM | 1000 to 10000 nM | CNc1cc(-c2cc(F)c3nc(C)cn3c2)cc2ncn(C3CCNCC3)c(=O)c12 [Compound 358, 7-{8-fluoro-2-methylimidazo[1,2-a]pyridine-6-yl}-5-(methylamino)-3-(piperidin-4-yl)quinazolin-4-one] |
| 1000 to 10000 nM | 1000 to 10000 nM | 1000 to 10000 nM | 1000 to 10000 nM | Cc1cc(-c2cnc3c(=O)n(C4CCNCC4)cnc3c2)cc2cn(C)nc12 [Compound 311] |
| > 10000 nM | > 10000 nM | < 100 nM | > 10000 nM | Cc1cn2nc(-c3cc(N(C)C)c4c(=O)n(C5CCNC6(CC6)C5)cnc4c3)cc(C)c2n1 (centres unmarked) [Compound 345] |
| 100 to 1000 nM | 100 to 1000 nM | 100 to 1000 nM | 100 to 1000 nM | Cc1cn2cc(-c3cc(F)c4c(=O)n(C5=CCNCC5)cnc4c3)cc(F)c2n1 [Compound 342] |
| 1000 to 10000 nM | 100 to 1000 nM | 1000 to 10000 nM | 100 to 1000 nM | Cc1cn2cc(-c3ccc4c(=O)n(C5CCN[C@@H](C)C5)cnc4c3)cc(F)c2n1 (some centres unmarked) [Compound 294] |
| 100 to 1000 nM | < 100 nM | 100 to 1000 nM | 100 to 1000 nM | Cc1cn2cc(-c3cc(F)c4c(=O)n(N5CCNCC5)cnc4c3)cc(F)c2n1 [Compound 340, 5-fluoro-7-{8-fluoro-2-methylimidazo[1,2-a]pyridin-6-yl}-3-(piperazin-1-yl)quinazolin-4-one] |
| 1000 to 10000 nM | 1000 to 10000 nM | > 10000 nM | > 10000 nM | CNc1cc(-c2cc(C#N)c3nc(C)cn3c2)cc2ncn(C3CCNCC3)c(=O)c12 [Compound 363, 2-methyl-6-[5-(methylamino)-4-oxo-3-(piperidin-4-yl)quinazolin-7-yl]imidazo[1,2-a]pyridine-8-carbonitrile] |
| 1000 to 10000 nM | 100 to 1000 nM | 1000 to 10000 nM | 100 to 1000 nM | Cc1cn2cc(-c3ccc4c(=O)n([C@@H]5CCN[C@@H](C)C5)cnc4c3)cc(F)c2n1 [Compound 293] |
| > 10000 nM | > 10000 nM | > 10000 nM | > 10000 nM | Cc1cn2cc(-c3cc(F)c4c(=O)n(C5CCNCC5(F)F)cnc4c3)cc(F)c2n1 (centres unmarked) [Compound 339] |
| < 100 nM | < 100 nM | < 100 nM | < 100 nM | Cc1cn2nc(-c3cc(F)c4c(=O)n([C@H]5CCNC6(CC6)C5)cnc4c3)cc(C)c2n1 (single isomer, unassigned) [Compound 357] |
| 1000 to 10000 nM | 100 to 1000 nM | 1000 to 10000 nM | 100 to 1000 nM | Cc1cn2cc(-c3ccc4c(=O)n(C5CCNCC5)cnc4c3)cc(C)c2n1 [Compound 292] |
| 1000 to 10000 nM | 100 to 1000 nM | 1000 to 10000 nM | 1000 to 10000 nM | Cc1cn2cc(-c3cc(F)c4c(=O)n([C@H]5CCNC[C@@H]5F)cnc4c3)cc(F)c2n1 (relative stereo) [Compound 341, 5-fluoro-7-(8-fluoro-2-methylimidazo[1,2-a]pyridin-6-yl)-3-(trans-3-fluoropiperidin-4-yl)quinazolin-4(3H)-one] |
| < 100 nM | < 100 nM | < 100 nM | < 100 nM | Cc1cn2nc(-c3cc(F)c4c(=O)n(C5CCNCC5)ccc4c3)cc(C)c2n1 [Compound 322] |
| 1000 to 10000 nM | 100 to 1000 nM | > 10000 nM | 1000 to 10000 nM | Cc1nc2c(F)cc(-c3ccc4c(=O)n(C5CCNCC5)cnc4c3)cc2s1 [Compound 285] |
| < 100 nM | < 100 nM | < 100 nM | < 100 nM | Cc1cn2cc(-c3ccc4c(=O)n(C5CCNCC5)ccc4c3)cc(F)c2n1 [Compound 276] |
| 1000 to 10000 nM | 100 to 1000 nM | 1000 to 10000 nM | 1000 to 10000 nM | Cc1cn2cc(-c3ccc4c(=O)n(C5CCNCC5)cnc4c3)nc2c(C)n1 [Compound 286] |
| > 10000 nM | 1000 to 10000 nM | 1000 to 10000 nM | > 10000 nM | Cc1cn2cc(-c3cc(F)c4c(=O)n([C@H]5CCNC[C@@H]5O)cnc4c3)cc(F)c2n1 [Compound 347, 5-fluoro-7-{8-fluoro-2-methylimidazo[1,2-a]pyridin-6-yl}-3-[(3S,4S)-3-hydroxypiperidin-4-yl]quinazolin-4-one] |
| > 10000 nM | > 10000 nM | > 10000 nM | > 10000 nM | CNc1cc(-c2cn3cc(C)nc3c(C)n2)cc2ncn(C3CCNCC3)c(=O)c12 [Compound 360, 7-{2,8-dimethylimidazo[1,2-a]pyrazine-6-yl}-5-(methylamino)-3-(piperidin-4-yl)quinazolin-4-one] |
| 100 to 1000 nM | < 100 nM | 100 to 1000 nM | 100 to 1000 nM | Cc1cn2cc(-c3cc(F)c4c(=O)n(C5CCNCC5)cnc4c3)cc(C)c2n1 [Compound 317] |
| 1000 to 10000 nM | 100 to 1000 nM | 1000 to 10000 nM | 1000 to 10000 nM | Cc1cn2cc(-c3ccc4c(=O)n(C5CCNCC5)cnc4c3)ncc2n1 [Compound 297] |
| 100 to 1000 nM | < 100 nM | 100 to 1000 nM | < 100 nM | Cc1cn2nc(-c3cc(F)c4c(=O)n(C5CCNCC5)cnc4c3)cc2c(C)n1 [Compound 318] |
